According to patent US20080269323A1, “USE OF 4-(NITROOXY)-BUTYL-(S)-2-(6-METHOXY-2-NAPHTHYL)-PROPANOATE FOR TREATING PAIN AND INFLAMMATION” (NICOX S.A., priority 2007, published 2008):

What was measured:
PGE2 = experiment: Urinary PGE2 production levels; type: in vivo, rat; settings: rats, oral, two weeks; naproxcinod 14.5 mg/kg, naproxen 10 mg/kg
[1] = Urine flow rate during water-load; type: in vivo, rat; settings: water-load (90 min) compared to baseline; rats, oral, two weeks
Experimental: After obtaining a set of baseline images, hypotonic glucose-saline (0.25% NaCl, 0.5% glucose) at 1.5 ml/100 g body weight/hr was infused intravenously via the femoral catheter for 2 hours to induce the water-diuresis.

Row | Increase in urine flow during water-load (in words) [1] | SMILES | Urinary PGE2 production levels (in words) (PGE2)
1 | substantially less increase | COc1ccc2cc([C@H](C)C(=O)OCCCCO[N+](=O)[O-])ccc2c1 [Naproxcinod, 4-(Nitrooxy)-butyl-(S)-2-(6-methoxy-2-naphthyl)-propanoate] | reduced
2 | substantially less increase | COc1ccc2cc([C@H](C)C(=O)O)ccc2c1 [Naproxen, naproxen] | reduced
